Data reported in publication PMC8571282 (Nature Communications, 2021).
Values joined by “and” are separate entries in the source; they are usually repeats but may differ in a detail not shown here. Equal entries are not always repeated. Where two headings read alike, the source gives them in different places.

Experiments:
[1] = test system: VeroE6 cells; assay: Cytotoxicity assay (PrestoBlue), VeroE6; conditions: 72 h
[2] = Cytotoxicity assay (PrestoBlue), VeroE6; conditions: African green monkey, VeroE6 cells
[3] = test system: SARS-CoV-2 WA1/2020; type: in vivo, ferret (Mustela putorius furo); conditions: for Transform of Nasal lavage titer, Mean 2 (treated group) / Transform of Nasal lavage titer, Mean Diff. (Vehicle vs. treated): Fig 3b; for Transform of Nasal lavage titer, Mean 2 (treated group) / Transform of Nasal lavage titer, Mean Diff. (Vehicle vs. treated) / Transform of Nasal Turbinate titer, Mean 2 (treated group) / Transform of Nasal Turbinate titer, Mean Diff. (Vehicle vs. treated): b.i.d.; for Transform of Nasal Turbinate titer, Mean 2 (treated group) / Transform of Nasal Turbinate titer, Mean Diff. (Vehicle vs. treated): Fig 3c; for Transform of Nasal Lavage RNA copies, Mean 2 (treated group) / Transform of Nasal Lavage RNA copies, Mean Diff. (Vehicle vs. treated): Fig 3f; on Transform of Nasal Lavage RNA copies, Mean 2 (treated group): unit not given here; on Transform of Nasal Lavage RNA copies, Mean Diff. (Vehicle vs. treated): unit not given here; on Transform of Nasal lavage titer, Mean 2 (treated group): unit not given here; on Transform of Nasal lavage titer, Mean Diff. (Vehicle vs. treated): unit not given here
[4] = type: in vivo, ferret (Mustela putorius furo); conditions: Fig 3e; Row 1 (time); 3 mg/kg; b.i.d.

CC(C)C(=O)OCC1OC(C#N)(c2ccc3c(N)ncnn23)C(OC(=O)C(C)C)C1OC(=O)C(C)C (centres unmarked) [GS-621763]
% cell viability ([1]; VeroE6, 0.046 µM, 0.046 µM): 61% and 56%
% cell viability ([1]; VeroE6, 1.235 µM, 1.235 µM): 82%
% cell viability ([1]; VeroE6, 3.704 µM, 3.704 µM): 97%
% cell viability ([1]; VeroE6, 33.333 µM, 33.333 µM): 103%
% cell viability ([1]; VeroE6, 100 µM, 100 µM): -4% and -6% and -7%
CC50 at 72 h [2]: > 100 µM
viability at 72 h, 0.046 µM ([2]; % cell viability, VeroE6, 0.046 µM, 72 h): 62%
viability at 72 h, 1.235 µM ([2]; % cell viability, VeroE6, 1.235 µM, 72 h): 90%
viability at 72 h, 3.704 µM ([2]; % cell viability, VeroE6, 3.704 µM, 72 h): 95%
viability at 72 h, 33.333 µM ([2]; % cell viability, VeroE6, 33.333 µM, 72 h): 105%
Transform of Nasal lavage titer, Mean 2 (treated group) ([3]; Day 0, 3 mg/kg): 0.699
Transform of Nasal lavage titer, Mean Diff. (Vehicle vs. treated) ([3]; Day 0, 3 mg/kg): 0
Transform of Nasal lavage titer, Mean 2 (treated group) ([3]; Day 0, 10 mg/kg): 0.699
Transform of Nasal lavage titer, Mean Diff. (Vehicle vs. treated) ([3]; Day 0, 10 mg/kg): 0
Transform of Nasal lavage titer, Mean 2 (treated group) ([3]; Day 0.5, 3 mg/kg): 2.775
Transform of Nasal lavage titer, Mean Diff. (Vehicle vs. treated) ([3]; Day 0.5, 3 mg/kg): -0.18
Transform of Nasal lavage titer, Mean 2 (treated group) ([3]; Day 0.5, 10 mg/kg): 2.413
Transform of Nasal lavage titer, Mean Diff. (Vehicle vs. treated) ([3]; Day 0.5, 10 mg/kg): 0.1817
Transform of Nasal lavage titer, Mean 2 (treated group) ([3]; Day 1, 3 mg/kg): 2.834
Transform of Nasal lavage titer, Mean Diff. (Vehicle vs. treated) ([3]; Day 1, 3 mg/kg): 0.8732
Transform of Nasal lavage titer, Mean 2 (treated group) ([3]; Day 1, 10 mg/kg): 2.126
Transform of Nasal lavage titer, Mean Diff. (Vehicle vs. treated) ([3]; Day 1, 10 mg/kg): 1.581
Transform of Nasal lavage titer, Mean 2 (treated group) ([3]; Day 1.5, 3 mg/kg): 3.42
Transform of Nasal lavage titer, Mean Diff. (Vehicle vs. treated) ([3]; Day 1.5, 3 mg/kg): 1.236
Transform of Nasal lavage titer, Mean 2 (treated group) ([3]; Day 1.5, 10 mg/kg): 2.277
Transform of Nasal lavage titer, Mean Diff. (Vehicle vs. treated) ([3]; Day 1.5, 10 mg/kg): 2.379
Transform of Nasal lavage titer, Mean 2 (treated group) ([3]; Day 2, 3 mg/kg): 3.882
Transform of Nasal lavage titer, Mean Diff. (Vehicle vs. treated) ([3]; Day 2, 3 mg/kg): 0.3882
Transform of Nasal lavage titer, Mean 2 (treated group) ([3]; Day 2, 10 mg/kg): 1.369
Transform of Nasal lavage titer, Mean Diff. (Vehicle vs. treated) ([3]; Day 2, 10 mg/kg): 2.901
Transform of Nasal lavage titer, Mean 2 (treated group) ([3]; Day 2.5, 3 mg/kg): 3.714
Transform of Nasal lavage titer, Mean Diff. (Vehicle vs. treated) ([3]; Day 2.5, 3 mg/kg): 0.4855
Transform of Nasal lavage titer, Mean 2 (treated group) ([3]; Day 2.5, 10 mg/kg): 1.314
Transform of Nasal lavage titer, Mean Diff. (Vehicle vs. treated) ([3]; Day 2.5, 10 mg/kg): 2.886
Transform of Nasal lavage titer, Mean 2 (treated group) ([3]; Day 3, 3 mg/kg): 3.088
Transform of Nasal lavage titer, Mean Diff. (Vehicle vs. treated) ([3]; Day 3, 3 mg/kg): 0.713
Transform of Nasal lavage titer, Mean 2 (treated group) ([3]; Day 3, 10 mg/kg): 0.8495
Transform of Nasal lavage titer, Mean Diff. (Vehicle vs. treated) ([3]; Day 3, 10 mg/kg): 2.952
Transform of Nasal lavage titer, Mean 2 (treated group) ([3]; Day 3.5, 3 mg/kg): 3.452
Transform of Nasal lavage titer, Mean Diff. (Vehicle vs. treated) ([3]; Day 3.5, 3 mg/kg): 0.4247
Transform of Nasal lavage titer, Mean 2 (treated group) ([3]; Day 3.5, 10 mg/kg): 1.758
Transform of Nasal lavage titer, Mean Diff. (Vehicle vs. treated) ([3]; Day 3.5, 10 mg/kg): 2.118
Transform of Nasal lavage titer, Mean 2 (treated group) ([3]; Day 4, 3 mg/kg): 3.139
Transform of Nasal lavage titer, Mean Diff. (Vehicle vs. treated) ([3]; Day 4, 3 mg/kg): 0.849
Transform of Nasal lavage titer, Mean 2 (treated group) ([3]; Day 4, 10 mg/kg): 1
Transform of Nasal lavage titer, Mean Diff. (Vehicle vs. treated) ([3]; Day 4, 10 mg/kg): 2.988
Transform of Nasal Turbinate titer, Mean 2 (treated group) ([3]; 3 mg/kg): 4.557
Transform of Nasal Turbinate titer, Mean Diff. (Vehicle vs. treated) ([3]; 3 mg/kg): 1.366
Transform of Nasal Turbinate titer, Mean 2 (treated group) ([3]; 10 mg/kg): 3.042
Transform of Nasal Turbinate titer, Mean Diff. (Vehicle vs. treated) ([3]; 10 mg/kg): 2.881
Transform of Nasal Lavage RNA copies, Mean 2 (treated group) ([3]; Row 1 (time), 3mg/kg b.i.d.): 0
Transform of Nasal Lavage RNA copies, Mean Diff. (Vehicle vs. treated) ([3]; Row 1 (time), 3mg/kg b.i.d.): 0
Transform of Nasal Lavage RNA copies, Mean 2 (treated group) ([3]; Row 1 (time), 10mg/kg b.i.d.): 0
Transform of Nasal Lavage RNA copies, Mean Diff. (Vehicle vs. treated) ([3]; Row 1 (time), 10mg/kg b.i.d.): 0
Transform of Nasal Lavage RNA copies, Mean 2 (treated group) ([3]; Row 2 (time), 3mg/kg b.i.d.): 5.027
Transform of Nasal Lavage RNA copies, Mean Diff. (Vehicle vs. treated) ([3]; Row 2 (time), 3mg/kg b.i.d.): 0.585
Transform of Nasal Lavage RNA copies, Mean 2 (treated group) ([3]; Row 2 (time), 10mg/kg b.i.d.): 4.315
Transform of Nasal Lavage RNA copies, Mean Diff. (Vehicle vs. treated) ([3]; Row 2 (time), 10mg/kg b.i.d.): 1.297
Transform of Nasal Lavage RNA copies, Mean 2 (treated group) ([3]; Row 3 (time), 3mg/kg b.i.d.): 5.927
Transform of Nasal Lavage RNA copies, Mean Diff. (Vehicle vs. treated) ([3]; Row 3 (time), 3mg/kg b.i.d.): 0.2134
Transform of Nasal Lavage RNA copies, Mean 2 (treated group) ([3]; Row 3 (time), 10mg/kg b.i.d.): 4.129
Transform of Nasal Lavage RNA copies, Mean Diff. (Vehicle vs. treated) ([3]; Row 3 (time), 10mg/kg b.i.d.): 2.012
Transform of Nasal Lavage RNA copies, Mean 2 (treated group) ([3]; Row 4 (time), 3mg/kg b.i.d.): 5.77
Transform of Nasal Lavage RNA copies, Mean Diff. (Vehicle vs. treated) ([3]; Row 4 (time), 3mg/kg b.i.d.): -0.1446
Transform of Nasal Lavage RNA copies, Mean 2 (treated group) ([3]; Row 4 (time), 10mg/kg b.i.d.): 3.777
Transform of Nasal Lavage RNA copies, Mean Diff. (Vehicle vs. treated) ([3]; Row 4 (time), 10mg/kg b.i.d.): 1.849
Transform of Nasal Lavage RNA copies, Mean 2 (treated group) ([3]; Row 5 (time), 3mg/kg b.i.d.): 5.662
Transform of Nasal Lavage RNA copies, Mean Diff. (Vehicle vs. treated) ([3]; Row 5 (time), 3mg/kg b.i.d.): 0.07178
Transform of Nasal Lavage RNA copies, Mean 2 (treated group) ([3]; Row 5 (time), 10mg/kg b.i.d.): 3.751
Transform of Nasal Lavage RNA copies, Mean Diff. (Vehicle vs. treated) ([3]; Row 5 (time), 10mg/kg b.i.d.): 1.983
reduction of virus burden in the turbinates ([3]; in vivo): one order of magnitude
viral RNA copies in nasal lavages and turbinates vs vehicle ([3]; in vivo): statistically significant mean reduction
virus burden in the turbinates ([3]; in vivo): approached the limit of detection
virus load in nasal lavages vs vehicle ([3]; in vivo): approximately one order of magnitude lower
virus shedding in nasal lavages ([3]; in vivo): near-detection level
Bodyweight, Mean 2 (treated group) [4]: 100
Bodyweight, Mean Diff. (Vehicle vs. treated) [4]: 0
